Two molecules from ChEMBL document CHEMBL4819104, “Discovery of 2-amino-3-amido-5-aryl-pyridines as highly potent, orally bioavailable, and efficacious PERK kinase inhibitors” (Bioorg Med Chem Lett, 2021) can be followed below.

For orientation: IC50 means the concentration needed to halve the response being measured. Usually solubility stands for how much of the substance goes into solution per volume. A lower solubility goes with a poorly soluble substance. One may read the efflux ratio as a quotient of directional permeabilities that is used to spot active efflux. As a reminder, the half-life is how long it takes for the measured level to halve. Low values mean rapid decline, high ones slow decline. Usually Cmax stands for the maximum level reached in the sampled fluid or tissue. As a reminder, the AUC(0-t) is exposure summed from dosing to a finite time, without extrapolation to infinity. The bioavailability is the share of a dose that reaches the circulation, judged against a reference dose that is usually intravenous. Low readings indicate little systemic uptake, high ones much systemic uptake.

For series [1], the target named is T1, Eukaryotic translation initiation factor 2-alpha kinase 3 (Homo sapiens, UniProt Q9NZJ5).
T1 sequence (Q9NZJ5 whole entry): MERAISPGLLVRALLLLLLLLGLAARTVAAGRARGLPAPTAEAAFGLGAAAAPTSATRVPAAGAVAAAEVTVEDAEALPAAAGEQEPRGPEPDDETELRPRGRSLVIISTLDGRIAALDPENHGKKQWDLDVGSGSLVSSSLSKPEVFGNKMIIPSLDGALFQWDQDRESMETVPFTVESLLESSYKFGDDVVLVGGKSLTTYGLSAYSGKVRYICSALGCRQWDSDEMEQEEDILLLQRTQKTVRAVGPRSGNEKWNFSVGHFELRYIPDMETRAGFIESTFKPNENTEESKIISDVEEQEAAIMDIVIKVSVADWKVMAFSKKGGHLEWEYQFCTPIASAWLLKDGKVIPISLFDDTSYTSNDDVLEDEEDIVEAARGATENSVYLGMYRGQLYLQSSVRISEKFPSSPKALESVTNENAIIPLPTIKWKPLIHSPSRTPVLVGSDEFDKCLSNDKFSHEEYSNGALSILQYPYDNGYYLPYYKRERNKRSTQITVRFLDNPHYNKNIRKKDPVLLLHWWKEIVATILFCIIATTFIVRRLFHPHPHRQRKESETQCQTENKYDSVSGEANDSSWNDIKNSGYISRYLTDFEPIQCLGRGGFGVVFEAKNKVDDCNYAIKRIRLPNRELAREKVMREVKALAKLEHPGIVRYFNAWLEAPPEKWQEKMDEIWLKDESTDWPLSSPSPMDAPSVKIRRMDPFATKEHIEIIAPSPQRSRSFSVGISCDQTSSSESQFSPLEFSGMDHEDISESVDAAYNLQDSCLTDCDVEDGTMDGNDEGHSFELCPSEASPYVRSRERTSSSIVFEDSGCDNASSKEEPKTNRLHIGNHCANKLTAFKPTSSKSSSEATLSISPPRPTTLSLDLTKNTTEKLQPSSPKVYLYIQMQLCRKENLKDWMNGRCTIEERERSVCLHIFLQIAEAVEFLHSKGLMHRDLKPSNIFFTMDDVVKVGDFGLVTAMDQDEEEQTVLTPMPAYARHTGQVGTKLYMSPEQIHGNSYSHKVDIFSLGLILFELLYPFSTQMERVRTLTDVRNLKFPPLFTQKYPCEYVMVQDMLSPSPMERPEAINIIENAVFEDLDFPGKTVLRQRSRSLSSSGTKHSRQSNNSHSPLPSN
The experiment in a line: Inhibition of human His-tagged PERK expressed in Escherichia coli assessed as eIF2alpha phosphorylation by TR-FRET assay. For orientation: TR-FRET usually uses a lanthanide donor and a delayed reading to cut background.

A short description of series [2]: Aqueous solubility of the compound. Format: physicochemical. Conditions: buffer.
A short description of series [3]: Apparent permeability of the compound across apical to basolateral side in human Caco-2 cells. Format: ADME, cell-based. Conditions: read-out: permeability.
Series [4] can be described thus: Efflux ratio of apparent permeability in human Caco-2 cells. Format: ADME, cell-based. A general note: Passage across Caco-2 layers is used to estimate intestinal permeability.
A short description of series [5]: Plasma protein binding in human. Format: ADME, cell-free. The settings on record: read-out: PPB (converted).
A short description of series [6]: Plasma protein binding in rat. The settings on record: read-out: PPB (converted). Format: ADME, cell-free.
The nature of series [7]: Plasma protein binding in mouse. Format: ADME, cell-free. Conditions: read-out: PPB (converted).
The nature of series [8]: Plasma protein binding in dog. Format: ADME, cell-free, Canis lupus familiaris. The settings on record: read-out: PPB (converted).
A short description of series [9]: Half life in human hepatocytes. Format: ADME, cell-based, Hepatocyte.
A short description of series [10]: Half life in rat hepatocytes. Format: ADME, cell-based, Hepatocyte.
The nature of series [11]: Half life in mouse hepatocytes. Format: ADME, cell-based, Hepatocyte.
Series [12] can be described thus: Half life in dog hepatocytes. Format: ADME, cell-based, Canis lupus familiaris, Hepatocyte.
Series [13] is described as follows: Cmax in mouse at 10 mg/kg, po. Format: ADME, organism-based. The arrangement: route oral, dose 10 mg/kg. Conditions: in vivo.
Series [14] is described as follows: AUC (0 to last) in mouse at 10 mg/kg, po. Format: ADME, organism-based. The arrangement: time 0 - last, route oral, dose 10 mg/kg. Conditions: in vivo.
Series [15] can be described thus: Half life in mouse at 10 mg/kg, po. Format: ADME, organism-based. Conditions: in vivo.
A short description of series [16]: Oral bioavailability in mouse at 10 mg/kg. Conditions: in vivo. Format: ADME, organism-based.
Series [17] concerns Tyrosine-protein kinase ABL1 (Homo sapiens), P00519 [F317L]. The series can be described thus: Inhibition of human non-phosphorylated ABL1 F317L mutant (S229 to K512 residues) expressed in mammalian expression system assessed as residual activity at 10 uM by Kinomescan method relative to control.
The target in series [18] is Aurora kinase B (Homo sapiens) (UniProt Q96GD4). The experiment in a line: Inhibition of wild-type human partial length AURKB (D25 to A303 residues) expressed in mammalian expression system assessed as residual activity at 10 uM by Kinomescan method relative to control.
The target in series [19] is Tyrosine-protein kinase receptor UFO (Homo sapiens) (UniProt P30530). The experiment in a line: Inhibition of wild-type human partial length AXL (R497 to Y821 residues) expressed in bacterial expression system assessed as residual activity at 10 uM by Kinomescan method relative to control.
The target in series [20] is Macrophage colony-stimulating factor 1 receptor (Homo sapiens) (UniProt P07333). The experiment in a line: Inhibition of wild-type human partial length CSF1R (I564 to S939 residues) expressed in bacterial expression system assessed as residual activity at 10 uM by Kinomescan method relative to control.
Series [21] deals with Epithelial discoidin domain-containing receptor 1 (Homo sapiens) (UniProt Q08345). The experiment in a line: Inhibition of wild-type human partial length DDR1 (R565 to V876 residues) expressed in bacterial expression system assessed as residual activity at 10 uM by Kinomescan method relative to control.
Series [22] addresses Mast/stem cell growth factor receptor Kit (Homo sapiens) (UniProt P10721). The experiment in a line: Inhibition of wild-type human partial length KIT (I571 to D952 residues) expressed in bacterial expression system assessed as residual activity at 10 uM by Kinomescan method relative to control.
Series [23] has as its target T2, Mitogen-activated protein kinase 12 (Homo sapiens) (UniProt P53778).
T2 sequence (whole entry): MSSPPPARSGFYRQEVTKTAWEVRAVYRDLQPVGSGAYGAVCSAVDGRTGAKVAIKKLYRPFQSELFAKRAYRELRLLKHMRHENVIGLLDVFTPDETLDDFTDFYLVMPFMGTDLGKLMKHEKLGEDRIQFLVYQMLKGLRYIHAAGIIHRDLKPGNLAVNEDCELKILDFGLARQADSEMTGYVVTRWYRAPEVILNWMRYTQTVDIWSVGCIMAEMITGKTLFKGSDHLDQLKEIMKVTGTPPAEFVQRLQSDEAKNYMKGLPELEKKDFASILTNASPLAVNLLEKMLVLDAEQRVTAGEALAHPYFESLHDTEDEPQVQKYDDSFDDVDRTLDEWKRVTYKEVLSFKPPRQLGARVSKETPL
The experiment in a line: Inhibition of wild-type human full length p38-gamma (M1 to L367 residues) expressed in mammalian expression system assessed as residual activity at 10 uM by Kinomescan method relative to control.

Series [24] concerns the target Platelet-derived growth factor receptor beta (Homo sapiens) (UniProt P09619). The series can be described thus: Inhibition of wild-type human partial length PDGFRbeta (V582 to Y1009 residues) expressed in bacterial expression system assessed as residual activity at 10 uM by Kinomescan method relative to control.
Series [25] has as its target T3, Receptor-interacting serine/threonine-protein kinase 1 (Homo sapiens) (UniProt Q13546).
T3 sequence (whole entry): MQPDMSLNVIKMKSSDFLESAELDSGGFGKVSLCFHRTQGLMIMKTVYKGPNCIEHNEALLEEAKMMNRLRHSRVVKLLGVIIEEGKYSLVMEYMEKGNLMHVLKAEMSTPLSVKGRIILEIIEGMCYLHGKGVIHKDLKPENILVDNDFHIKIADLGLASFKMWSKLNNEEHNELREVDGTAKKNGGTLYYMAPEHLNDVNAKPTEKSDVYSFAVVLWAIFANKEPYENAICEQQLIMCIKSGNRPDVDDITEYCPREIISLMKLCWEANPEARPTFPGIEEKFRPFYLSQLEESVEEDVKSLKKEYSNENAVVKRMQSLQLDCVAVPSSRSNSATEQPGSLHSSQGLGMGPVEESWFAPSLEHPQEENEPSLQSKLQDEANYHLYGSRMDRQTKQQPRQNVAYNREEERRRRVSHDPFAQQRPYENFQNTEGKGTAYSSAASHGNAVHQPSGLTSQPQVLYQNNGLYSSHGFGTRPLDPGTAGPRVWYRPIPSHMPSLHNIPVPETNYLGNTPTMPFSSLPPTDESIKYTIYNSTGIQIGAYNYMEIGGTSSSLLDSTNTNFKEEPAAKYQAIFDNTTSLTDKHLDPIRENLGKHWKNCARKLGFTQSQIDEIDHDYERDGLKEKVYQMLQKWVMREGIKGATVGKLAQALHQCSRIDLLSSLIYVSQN
The series can be described thus: Inhibition of wild-type human partial length RIPK1 (M1 to K305 residues) expressed in bacterial expression system assessed as residual activity at 10 uM by Kinomescan method relative to control.

Series [26] concerns the target Proto-oncogene tyrosine-protein kinase Src (Homo sapiens) (UniProt P12931). The experiment in a line: Inhibition of wild-type human partial length SRC (L240 to L536 residues) expressed in bacterial expression system assessed as residual activity at 10 uM by Kinomescan method relative to control.
Series [27] has as its target Angiopoietin-1 receptor (Homo sapiens) (UniProt Q02763). The experiment in a line: Inhibition of wild-type human partial length TIE2 (N804 to T1112 residues) expressed in bacterial expression system assessed as residual activity at 10 uM by Kinomescan method relative to control.
Series [28] has as its target BDNF/NT-3 growth factors receptor (Homo sapiens) (UniProt Q16620). The series can be described thus: Inhibition of wild-type human partial length TRKB (Q547 to G838 residues) expressed in mammalian expression system assessed as residual activity at 10 uM by Kinomescan method relative to control.

≈ marks a conversion by molar mass, not a printed value.

Sequence of Tyrosine-protein kinase receptor UFO (Homo sapiens) (P30530 whole entry, the tested form may be a part): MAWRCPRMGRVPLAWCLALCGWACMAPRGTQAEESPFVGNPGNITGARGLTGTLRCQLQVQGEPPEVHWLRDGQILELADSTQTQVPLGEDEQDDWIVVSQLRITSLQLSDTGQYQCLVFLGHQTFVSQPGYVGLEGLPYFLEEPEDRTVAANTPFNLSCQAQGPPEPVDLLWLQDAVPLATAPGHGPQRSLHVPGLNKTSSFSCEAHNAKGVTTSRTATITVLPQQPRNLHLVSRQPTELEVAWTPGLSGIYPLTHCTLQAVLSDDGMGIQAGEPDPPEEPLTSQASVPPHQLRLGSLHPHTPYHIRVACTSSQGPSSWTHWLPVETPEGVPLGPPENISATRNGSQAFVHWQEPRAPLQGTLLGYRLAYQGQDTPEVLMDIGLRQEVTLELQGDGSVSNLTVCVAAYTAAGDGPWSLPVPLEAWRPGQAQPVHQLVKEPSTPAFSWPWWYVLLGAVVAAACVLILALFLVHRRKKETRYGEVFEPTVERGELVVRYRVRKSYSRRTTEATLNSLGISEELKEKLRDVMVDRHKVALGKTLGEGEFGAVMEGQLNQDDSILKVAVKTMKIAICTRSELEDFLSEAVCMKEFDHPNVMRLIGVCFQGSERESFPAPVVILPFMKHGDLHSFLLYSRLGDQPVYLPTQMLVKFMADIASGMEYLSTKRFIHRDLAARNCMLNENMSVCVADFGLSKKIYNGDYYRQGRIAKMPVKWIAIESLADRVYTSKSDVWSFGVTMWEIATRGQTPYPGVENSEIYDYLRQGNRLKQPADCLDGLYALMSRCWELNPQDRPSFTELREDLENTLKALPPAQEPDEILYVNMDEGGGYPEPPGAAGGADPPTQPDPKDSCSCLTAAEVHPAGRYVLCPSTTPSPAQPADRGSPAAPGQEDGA
Sequence of Macrophage colony-stimulating factor 1 receptor (Homo sapiens) (P07333 whole entry, the tested form may be a part): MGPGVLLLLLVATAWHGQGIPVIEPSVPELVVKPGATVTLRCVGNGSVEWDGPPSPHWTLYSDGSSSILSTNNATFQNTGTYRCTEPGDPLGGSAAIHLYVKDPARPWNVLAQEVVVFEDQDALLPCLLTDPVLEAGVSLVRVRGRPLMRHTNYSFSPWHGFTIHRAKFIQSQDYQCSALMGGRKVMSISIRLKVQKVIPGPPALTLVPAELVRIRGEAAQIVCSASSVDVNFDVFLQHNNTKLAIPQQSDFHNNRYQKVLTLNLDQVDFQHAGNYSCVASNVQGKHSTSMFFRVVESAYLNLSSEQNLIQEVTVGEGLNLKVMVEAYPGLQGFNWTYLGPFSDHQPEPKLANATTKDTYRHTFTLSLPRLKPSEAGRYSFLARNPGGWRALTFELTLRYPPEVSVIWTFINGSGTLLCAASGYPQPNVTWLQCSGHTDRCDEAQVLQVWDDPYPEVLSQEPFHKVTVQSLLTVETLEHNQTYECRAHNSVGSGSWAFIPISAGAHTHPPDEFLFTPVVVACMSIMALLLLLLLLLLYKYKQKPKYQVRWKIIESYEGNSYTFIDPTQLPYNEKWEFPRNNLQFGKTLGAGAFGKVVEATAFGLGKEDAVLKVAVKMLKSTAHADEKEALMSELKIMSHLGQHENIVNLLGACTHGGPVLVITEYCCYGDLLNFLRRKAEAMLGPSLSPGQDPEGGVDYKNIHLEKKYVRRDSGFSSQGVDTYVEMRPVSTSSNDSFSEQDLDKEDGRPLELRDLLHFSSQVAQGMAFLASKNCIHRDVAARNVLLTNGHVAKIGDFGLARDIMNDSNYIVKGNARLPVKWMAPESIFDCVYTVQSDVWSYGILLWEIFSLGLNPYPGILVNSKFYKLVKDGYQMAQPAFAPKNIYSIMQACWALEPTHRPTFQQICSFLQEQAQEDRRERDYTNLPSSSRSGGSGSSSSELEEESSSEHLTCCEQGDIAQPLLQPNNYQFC
Sequence of Angiopoietin-1 receptor (Homo sapiens) (Q02763 whole entry, the tested form may be a part): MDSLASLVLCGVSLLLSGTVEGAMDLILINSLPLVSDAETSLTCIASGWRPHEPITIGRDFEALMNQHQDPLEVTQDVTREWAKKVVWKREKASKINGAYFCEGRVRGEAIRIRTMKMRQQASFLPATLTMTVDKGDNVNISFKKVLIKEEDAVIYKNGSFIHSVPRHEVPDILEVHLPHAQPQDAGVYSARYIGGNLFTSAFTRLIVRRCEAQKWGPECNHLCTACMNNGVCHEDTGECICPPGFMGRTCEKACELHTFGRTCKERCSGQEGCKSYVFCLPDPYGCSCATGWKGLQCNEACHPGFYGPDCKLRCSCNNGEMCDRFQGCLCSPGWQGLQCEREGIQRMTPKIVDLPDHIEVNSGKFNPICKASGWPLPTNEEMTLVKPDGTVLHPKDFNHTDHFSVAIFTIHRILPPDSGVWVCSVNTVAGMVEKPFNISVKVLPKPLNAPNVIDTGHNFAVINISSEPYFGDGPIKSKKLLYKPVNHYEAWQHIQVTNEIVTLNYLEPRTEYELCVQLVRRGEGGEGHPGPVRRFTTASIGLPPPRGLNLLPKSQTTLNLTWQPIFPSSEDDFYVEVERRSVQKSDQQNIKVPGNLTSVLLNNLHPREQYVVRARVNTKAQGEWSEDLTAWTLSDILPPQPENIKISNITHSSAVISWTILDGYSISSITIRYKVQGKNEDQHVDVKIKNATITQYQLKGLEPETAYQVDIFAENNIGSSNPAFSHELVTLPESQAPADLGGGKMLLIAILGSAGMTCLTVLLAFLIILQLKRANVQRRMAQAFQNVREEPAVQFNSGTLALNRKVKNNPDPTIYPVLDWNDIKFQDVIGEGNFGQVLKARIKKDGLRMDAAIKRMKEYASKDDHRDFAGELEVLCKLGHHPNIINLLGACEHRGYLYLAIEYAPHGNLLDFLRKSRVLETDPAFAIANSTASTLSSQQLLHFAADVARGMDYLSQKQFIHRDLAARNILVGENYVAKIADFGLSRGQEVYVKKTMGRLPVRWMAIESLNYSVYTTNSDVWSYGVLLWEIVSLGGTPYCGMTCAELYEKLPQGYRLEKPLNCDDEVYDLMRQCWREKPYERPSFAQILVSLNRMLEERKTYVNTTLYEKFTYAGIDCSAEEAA
Sequence of Proto-oncogene tyrosine-protein kinase Src (Homo sapiens) (P12931 2-536 limits assumed): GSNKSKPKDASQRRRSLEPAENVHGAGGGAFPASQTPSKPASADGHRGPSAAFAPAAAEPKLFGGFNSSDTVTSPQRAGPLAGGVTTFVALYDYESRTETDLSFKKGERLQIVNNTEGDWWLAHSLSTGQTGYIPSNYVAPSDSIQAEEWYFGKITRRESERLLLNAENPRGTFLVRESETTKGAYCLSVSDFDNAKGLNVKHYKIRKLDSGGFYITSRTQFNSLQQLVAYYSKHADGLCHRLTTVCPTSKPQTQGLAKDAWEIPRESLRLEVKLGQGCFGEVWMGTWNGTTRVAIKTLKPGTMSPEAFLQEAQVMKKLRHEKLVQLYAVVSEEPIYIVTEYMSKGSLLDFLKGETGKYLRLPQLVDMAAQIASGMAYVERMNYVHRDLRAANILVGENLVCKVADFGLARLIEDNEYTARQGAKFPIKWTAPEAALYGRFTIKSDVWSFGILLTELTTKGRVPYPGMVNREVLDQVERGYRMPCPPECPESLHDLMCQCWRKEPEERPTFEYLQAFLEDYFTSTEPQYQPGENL
Sequence of Epithelial discoidin domain-containing receptor 1 (Homo sapiens) (Q08345 whole entry, the tested form may be a part): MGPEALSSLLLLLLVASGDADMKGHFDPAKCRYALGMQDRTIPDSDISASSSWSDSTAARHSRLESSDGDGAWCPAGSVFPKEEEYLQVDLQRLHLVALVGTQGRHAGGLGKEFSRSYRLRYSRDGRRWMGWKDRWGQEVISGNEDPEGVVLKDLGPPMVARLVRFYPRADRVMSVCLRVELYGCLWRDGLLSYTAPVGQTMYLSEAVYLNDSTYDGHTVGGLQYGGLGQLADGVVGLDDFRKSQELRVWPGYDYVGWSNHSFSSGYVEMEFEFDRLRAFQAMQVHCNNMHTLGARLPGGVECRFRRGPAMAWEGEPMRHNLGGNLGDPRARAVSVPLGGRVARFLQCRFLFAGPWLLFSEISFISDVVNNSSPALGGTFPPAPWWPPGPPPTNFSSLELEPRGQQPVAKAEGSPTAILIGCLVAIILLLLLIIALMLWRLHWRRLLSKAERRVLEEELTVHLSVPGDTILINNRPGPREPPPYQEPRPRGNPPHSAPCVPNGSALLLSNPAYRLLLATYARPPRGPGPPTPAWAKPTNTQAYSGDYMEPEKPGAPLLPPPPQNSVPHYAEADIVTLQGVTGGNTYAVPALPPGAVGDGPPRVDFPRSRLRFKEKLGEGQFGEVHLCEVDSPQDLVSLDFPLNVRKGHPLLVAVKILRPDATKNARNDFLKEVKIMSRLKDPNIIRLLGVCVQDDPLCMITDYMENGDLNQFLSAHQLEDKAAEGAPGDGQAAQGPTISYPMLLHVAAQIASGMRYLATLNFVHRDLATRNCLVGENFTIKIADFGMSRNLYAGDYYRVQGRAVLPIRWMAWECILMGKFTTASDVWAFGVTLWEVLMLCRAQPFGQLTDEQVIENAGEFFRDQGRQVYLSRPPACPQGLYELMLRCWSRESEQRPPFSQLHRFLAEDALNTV
Sequence of Aurora kinase B (Homo sapiens) (Q96GD4 whole entry, the tested form may be a part): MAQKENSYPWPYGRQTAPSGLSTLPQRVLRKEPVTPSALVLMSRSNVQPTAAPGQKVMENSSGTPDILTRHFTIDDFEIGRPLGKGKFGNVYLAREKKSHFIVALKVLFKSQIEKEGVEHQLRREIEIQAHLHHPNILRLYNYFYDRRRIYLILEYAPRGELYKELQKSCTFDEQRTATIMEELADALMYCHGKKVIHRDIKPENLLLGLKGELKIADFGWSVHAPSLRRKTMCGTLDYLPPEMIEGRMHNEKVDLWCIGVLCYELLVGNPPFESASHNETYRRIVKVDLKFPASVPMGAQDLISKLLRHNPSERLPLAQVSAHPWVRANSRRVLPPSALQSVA

Take `Cc1cc(NC(=O)[C@H](O)c2cc(F)cc(F)c2)ccc1-c1cnc(N)c(C(=O)NC(C)C)c1`: in series [1], the IC50 stood at 4 nM. The amount in solution in series [2] (solubility) came to 31 µM (≈ 14.1 µg/mL). In series [3], the Papp A→B came out at 15 ×10⁻⁶ cm/s. Besides, the efflux ratio in [4] amounted to 2. The fraction unbound is 0.007 in series [5], 0.024 in [6], 0.017 in series [7] and 0.014 in series [8]. The half-life was 4.08 h in series [9]; 9.3 min in series [10]; 1.15 h in series [11]; 3.12 h in series [12]; 1.2 h in series [15]. Also, the Cmax in [13] was found to be 1600 ng/mL. This molecule also yielded an AUC(0-t) in series [14] of 2000 ng·h/mL. For the same molecule, the bioavailability in [16] was determined as 49%.
For `Cc1cccc(CC(=O)N2CCc3c2ccc(-c2cn(C)c4ncnc(N)c24)c3F)n1`, the Activity in [17] came out at 0%; in [18], 5.3%; in [19], 8.2%; in [20], 1.8%; in [21] it was 1.3%; in [22], 0.1%. Further, the Activity came to 3.7% in [23]; 0.2% in series [24]; 0% in [25]; 7% in [26]; 5.3% in [27]; 6.5% in series [28].
